# According to PubChem BioAssay (NCI):
#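 In this assay, cells in 96-well plates receive the compound at five concentrations for 48 hours. Endpoints are linearly interpolated between the surrounding concentrations. Abbreviation: GI50, concentration required for 50% inhibition of growth. TGI is the concentration that stops growth completely.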
# Columns and labels:
# Assay in all cases: DTP human tumour cell line panel, 48 h
# SF-268 CNS = system: SF-268 CNS
# RPMI-8226 leukemia = system: RPMI-8226 leukemia
# HL-60(TB) leukemia = system: HL-60(TB) leukemia
# SK-OV-3 ovarian = system: SK-OV-3 ovarian
# LOX IMVI melanoma = system: LOX IMVI melanoma
# CAKI-1 renal = system: CAKI-1 renal
# HOP-62 NSCLC = system: HOP-62 NSCLC
# HOP-92 NSCLC = system: HOP-92 NSCLC
# OVCAR-3 ovarian = system: OVCAR-3 ovarian
# COLO 205 colon = system: COLO 205 colon
SMILES,TGI (SF-268 CNS) [µM],TGI (RPMI-8226 leukemia) [µM],TGI (HL-60(TB) leukemia) [µM],TGI (SK-OV-3 ovarian) [µM],TGI (LOX IMVI melanoma) [µM],TGI (CAKI-1 renal) [µM],TGI (HOP-62 NSCLC) [µM],TGI (HOP-92 NSCLC) [µM],TGI (OVCAR-3 ovarian) [µM],TGI (COLO 205 colon) [µM],GI50 (SF-268 CNS) [µM],GI50 (RPMI-8226 leukemia) [µM],GI50 (HL-60(TB) leukemia) [µM],GI50 (SK-OV-3 ovarian) [µM],GI50 (CAKI-1 renal) [µM],GI50 (HOP-62 NSCLC) [µM],GI50 (HOP-92 NSCLC) [µM],GI50 (OVCAR-3 ovarian) [µM],GI50 (COLO 205 colon) [µM],GI50 (LOX IMVI melanoma) [µM]
O=C1Nc2ccc(Cl)cc2/C1=C\c1c(Cl)nc2sccn12,> 100,> 100,33.7,> 100,> 100,> 100,96.3,> 100,12.4,,,,,,,,,,,
COC(=O)N1CC2C3C4CC(C(c5ccccc5)=C4c4ccccc4)C3C21 (stereo unspecified),33.7,53.4,,70.2,25.6,32.8,42.5,24.5,36.7,45.2,,,,,,,,,,
Cc1ccc(N(CC(=O)Nc2ccc(S(=O)(=O)N3CCC(N4CCCC4)CC3)cc2)S(=O)(=O)c2ccc(Cl)cc2)cc1,3.29,5.06,4.33,3.29,,3.31,3.55,2.71,3.49,3.39,1.61,2.08,1.73,1.82,1.65,1.76,1.19,1.77,1.75,
CC(=O)NC1=C[C@@H]([C@H]2COC(C)(C)O2)OC1=O,> 100,> 100,> 100,> 100,> 100,> 100,> 100,> 100,> 100,> 100,,,,,,,,,,
O=C(Nc1ccc(-n2ccc3c(NC(=O)c4ccccc4)ncnc32)cc1)Nc1cccc(Cl)c1Cl,3.13,2.76,> 50,,2.04,24.9,2.15,2.48,2.75,7.97,1.1,0.646,13.6,,3.84,0.983,0.847,1.19,1.75,0.763
CCOC(=O)CC1(c2cccc3ccccc23)OC(=O)c2ccccc21 (stereo unspecified),> 100,64.2,54.1,> 100,> 100,> 100,,,> 100,98.5,,,,,,,,,,
C=C(OC1C(C)=C2C(C1OC(=O)CCCCCCC)C(C)(OC(C)=O)CC(OC(=O)CCC)C1(O)C2OC(=O)C1(C)O)/C(C)=C/C (stereo unspecified),16.7,0.0256,,16.9,,0.0615,,3.09,,0.101,< 0.0001,< 0.0001,< 0.0001,,0.000475,< 0.0001,,< 0.0001,< 0.0001,< 0.0001
